From patent publication US20170239173A1, “TRANSDERMAL ABSORPTION ENHANCER AND TRANSDERMAL ABSORPTION ENHANCEMENT AID” (ASAHI KASEI KABUSHIKI KAISHA, priority 2014, published 2017)

Tests used:
[1] = Solubility / state of the active ingredient in the preparation (equimolar salt or enhancer); type: physicochemical; conditions: solubility of MZR in the equimolar salt of the basic compound a) with isostearic acid or linoleic acid
[2] = tested on: hairless mouse skin (Laboskin)
[3] = partition coefficient between water and 1-octanol; cited from earlier work

Structure (SMILES) | Log P [3] | further results
CCn1cc[n+](C)c1.O=S(=O)([O-])C(F)(F)F | – | MZR dissolution [1]: Insoluble
COP(=O)([O-])OC.Cn1cc[n+](C)c1 | – | MZR dissolution [1]: Insoluble
CC(=O)O [Acetic acid] | – | Transdermal penetrability of MZR (hairless mouse) [2]: Not penetrated
Nc1ncnc2[nH]cnc12 [Adenine] | – | MZR dissolution [1]: Insoluble
CCCCC/C=C\C/C=C\CCCCCCCC(=O)O [Linoleic acid] | – | Transdermal penetrability of MZR (hairless mouse) [2]: Penetrated
O=C(O)CCC(=O)O [Succinic acid] | (LogP = −0.6) | Transdermal penetrability of MZR (hairless mouse) [2]: Not penetrated
CC(O)CN(CC(C)O)CC(C)O (stereo not shown) [TIPA] | – | MZR dissolution [1]: Insoluble
C[N+](C)(C)CCO [choline] | (LogP = −0.4 | Transdermal penetrability of MZR [2]: Penetrated
Cc1cccc(C)c1NC(=O)CC12CCCN1CCC2 [pilsicainide] | 2.7 | –
CN1CCN(CC(=O)N2c3ccccc3C(=O)Nc3cccnc32)CC1 [pirenzepine] | 0.1 | –
CCN(CC)CCNC(=O)c1ccc(N)cc1 [procainamide] | 0.9 | –
CCOC(=O)[C@H](CCc1ccccc1)N[C@@H](C)C(=O)N1Cc2ccccc2C[C@H]1C(=O)O [quinapril] | 1.2 | –
OC[C@H]1O[C@H](OC[C@H]2O[C@H](O[C@]3(CO)O[C@H](CO)[C@@H](O)[C@@H]3O)[C@H](O)[C@@H](O)[C@@H]2O)[C@H](O)[C@@H](O)[C@H]1O [raffinose] | −5.8 | –
O=C(NC(Cc1cc(=O)[nH]c2ccccc12)C(=O)O)c1ccc(Cl)cc1 (stereo not shown) [rebamipide] | 2.4 | –
Oc1cccc(O)c1 [resorcin] | 0.8 | –
O=P(O)(O)C(O)(Cc1cccnc1)P(=O)(O)O [risedronate] | −3.5 | –

Structure (SMILES) | Log P [3] | further results
CCCCc1ccc(O)cc1O [rucinol] | 2.4 | –
N[C@@H](CO)C(=O)O [serine] | −3.1 | –
CC(C)NCC(O)c1ccc(NS(C)(=O)=O)cc1 (stereo not shown) [sotalol] | 0.2 | –
C=CC[C@@H]1/C=C(\C)C[C@H](C)C[C@H](OC)[C@H]2O[C@@](O)(C(=O)C(=O)N3CCCC[C@H]3C(=O)O[C@H](/C(C)=C/[C@@H]3CC[C@@H](O)[C@H](OC)C3)[C@H](C)[C@@H](O)CC1=O)[C@H](C)C[C@@H]2OC [tacrolimus] | 2.7 | –
CCOC(=O)[C@H](CCc1ccccc1)N[C@H]1CS[C@H](c2cccs2)CN(CC(=O)O)C1=O [temocapril] | 1 | –
COc1cc2nc(N3CCN(C(=O)C4CCCO4)CC3)nc(N)c2cc1OC (stereo not shown) [terazosin] | 1.4 | –
NCCS(=O)(O)=S [thiotaurine] | −0.1 | –
c1ccc(CC2=NCCN2)cc1 [tolazoline] | 2.6 | –
Cc1cccc(Nc2ccncc2S(=O)(=O)NC(=O)NC(C)C)c1 [torasemide] | 2.7 | –
CCOC(=O)[C@H](CCc1ccccc1)N[C@@H](C)C(=O)N1[C@H](C(=O)O)C[C@H]2CCCC[C@@H]21 [trandolapril] | 2 | –
NC[C@H]1CC[C@H](C(=O)O)CC1 [tranexamic acid] | −2 | –
Nc1nc(N)c2nc(-c3ccccc3)c(N)nc2n1 [triamterene] | 1 | –
NS(=O)(=O)c1cc2c(cc1Cl)NC(C(Cl)Cl)NS2(=O)=O (stereo not shown) [trichlormethiazide] | 0.6 | –
N[C@@H](Cc1c[nH]c2ccccc12)C(=O)O [tryptophan] | −1.1 | –
COc1ccccc1N1CCN(CCCNc2cc(=O)n(C)c(=O)n2C)CC1 [urapidil] | 1.5 | –
COc1ccc(C(=O)N2CCN(c3ccc4c(c3)CCC(=O)N4)CC2)cc1OC [vesnarinone] | 2.1 | –
